What was measured:
TACE enzyme = TACE enzyme (Homo sapiens, UniProt P78536); assay: Enzymatic test of TACE inhibition (fluorescent substrate); assay type: biochemical
MMP1 = MMP1 (Homo sapiens (Human), UniProt P03956); assay: Selectivity test, MMP1; assay type: biochemical
MMP3 = MMP3 (Homo sapiens (Human), UniProt P08254); assay: Selectivity test, MMP3; assay type: biochemical
MMP9 = MMP9 (Homo sapiens (Human), UniProt P14780); assay: Selectivity test, MMP9; assay type: biochemical
ADAM10 = ADAM10 (Homo sapiens (Human), UniProt O14672); assay: Selectivity test, ADAM10; assay type: biochemical
ADAM9 = ADAM9 (Homo sapiens (Human), UniProt Q13443); assay: biochemical
[1] = enzymatic test, substrate 40 μM

Chain of MMP3 (P08254 100-477): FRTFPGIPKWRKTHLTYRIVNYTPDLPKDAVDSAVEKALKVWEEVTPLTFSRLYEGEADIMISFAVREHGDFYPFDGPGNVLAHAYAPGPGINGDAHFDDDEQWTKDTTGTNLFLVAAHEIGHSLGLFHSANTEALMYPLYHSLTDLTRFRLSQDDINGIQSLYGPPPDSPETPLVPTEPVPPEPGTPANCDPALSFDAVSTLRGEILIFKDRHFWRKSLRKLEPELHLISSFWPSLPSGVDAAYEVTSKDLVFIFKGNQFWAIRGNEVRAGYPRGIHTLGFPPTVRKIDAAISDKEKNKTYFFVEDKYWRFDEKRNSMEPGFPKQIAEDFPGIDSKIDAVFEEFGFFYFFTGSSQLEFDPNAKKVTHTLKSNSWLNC
Chain of TACE enzyme (P78536 215-824 limits assumed): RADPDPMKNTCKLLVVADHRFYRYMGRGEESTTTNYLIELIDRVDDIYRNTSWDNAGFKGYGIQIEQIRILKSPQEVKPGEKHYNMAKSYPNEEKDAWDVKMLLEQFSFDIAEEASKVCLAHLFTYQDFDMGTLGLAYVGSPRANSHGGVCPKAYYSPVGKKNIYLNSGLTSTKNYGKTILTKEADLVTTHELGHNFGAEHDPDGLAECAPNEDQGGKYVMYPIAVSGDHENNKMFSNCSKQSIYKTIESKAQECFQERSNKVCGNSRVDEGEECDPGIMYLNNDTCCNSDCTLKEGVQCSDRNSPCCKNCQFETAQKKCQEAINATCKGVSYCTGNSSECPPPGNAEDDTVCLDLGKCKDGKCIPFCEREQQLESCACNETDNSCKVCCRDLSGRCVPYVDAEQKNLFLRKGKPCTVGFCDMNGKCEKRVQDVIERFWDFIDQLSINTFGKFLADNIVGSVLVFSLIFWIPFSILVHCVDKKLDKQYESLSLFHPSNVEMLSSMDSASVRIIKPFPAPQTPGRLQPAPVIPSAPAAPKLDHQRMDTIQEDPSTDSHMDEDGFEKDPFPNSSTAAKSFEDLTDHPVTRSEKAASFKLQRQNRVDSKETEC
Chain of MMP1 (P03956 100-469): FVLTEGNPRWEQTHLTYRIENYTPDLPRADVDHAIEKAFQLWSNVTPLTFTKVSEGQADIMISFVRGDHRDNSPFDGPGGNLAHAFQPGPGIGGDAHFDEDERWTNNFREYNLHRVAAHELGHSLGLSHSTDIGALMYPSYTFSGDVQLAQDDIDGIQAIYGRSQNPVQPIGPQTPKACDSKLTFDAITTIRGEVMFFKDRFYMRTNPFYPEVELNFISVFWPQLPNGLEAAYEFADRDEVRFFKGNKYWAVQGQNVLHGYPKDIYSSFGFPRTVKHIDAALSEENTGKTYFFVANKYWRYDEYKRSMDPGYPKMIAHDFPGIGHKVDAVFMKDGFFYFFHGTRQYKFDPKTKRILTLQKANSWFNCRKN
Chain of MMP9 (P14780 94-707): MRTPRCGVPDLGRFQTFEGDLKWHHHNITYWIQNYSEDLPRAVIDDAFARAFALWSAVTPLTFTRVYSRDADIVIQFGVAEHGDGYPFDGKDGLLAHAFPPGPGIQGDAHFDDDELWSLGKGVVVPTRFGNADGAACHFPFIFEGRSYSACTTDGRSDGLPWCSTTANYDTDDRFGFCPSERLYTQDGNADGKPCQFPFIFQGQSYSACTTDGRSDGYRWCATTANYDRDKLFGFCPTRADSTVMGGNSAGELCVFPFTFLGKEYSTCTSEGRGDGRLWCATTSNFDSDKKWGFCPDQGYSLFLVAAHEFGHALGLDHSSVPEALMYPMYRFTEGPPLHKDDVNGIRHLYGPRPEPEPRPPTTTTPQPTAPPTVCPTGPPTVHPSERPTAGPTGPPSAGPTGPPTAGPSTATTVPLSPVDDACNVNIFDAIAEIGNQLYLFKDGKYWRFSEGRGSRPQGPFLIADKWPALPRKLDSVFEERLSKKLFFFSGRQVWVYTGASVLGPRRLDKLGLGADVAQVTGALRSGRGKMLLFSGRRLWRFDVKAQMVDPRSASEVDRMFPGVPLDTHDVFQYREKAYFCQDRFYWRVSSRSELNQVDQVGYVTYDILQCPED
Chain of ADAM10 (O14672 214-748): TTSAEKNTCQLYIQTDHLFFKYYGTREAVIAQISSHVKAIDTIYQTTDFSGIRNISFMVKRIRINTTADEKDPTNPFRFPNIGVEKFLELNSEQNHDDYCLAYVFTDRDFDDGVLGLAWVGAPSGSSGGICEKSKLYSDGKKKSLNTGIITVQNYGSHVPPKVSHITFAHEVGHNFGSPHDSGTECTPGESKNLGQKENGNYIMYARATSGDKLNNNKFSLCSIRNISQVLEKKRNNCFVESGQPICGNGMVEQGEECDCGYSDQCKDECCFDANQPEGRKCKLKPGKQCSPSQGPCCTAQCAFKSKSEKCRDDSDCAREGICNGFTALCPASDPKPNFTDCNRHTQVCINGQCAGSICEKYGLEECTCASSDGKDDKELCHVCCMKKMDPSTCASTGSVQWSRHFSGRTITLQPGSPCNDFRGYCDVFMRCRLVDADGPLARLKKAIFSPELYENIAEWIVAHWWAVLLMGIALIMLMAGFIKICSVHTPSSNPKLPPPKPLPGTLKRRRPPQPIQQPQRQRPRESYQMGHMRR
Chain of ADAM9 (Q13443 29-819): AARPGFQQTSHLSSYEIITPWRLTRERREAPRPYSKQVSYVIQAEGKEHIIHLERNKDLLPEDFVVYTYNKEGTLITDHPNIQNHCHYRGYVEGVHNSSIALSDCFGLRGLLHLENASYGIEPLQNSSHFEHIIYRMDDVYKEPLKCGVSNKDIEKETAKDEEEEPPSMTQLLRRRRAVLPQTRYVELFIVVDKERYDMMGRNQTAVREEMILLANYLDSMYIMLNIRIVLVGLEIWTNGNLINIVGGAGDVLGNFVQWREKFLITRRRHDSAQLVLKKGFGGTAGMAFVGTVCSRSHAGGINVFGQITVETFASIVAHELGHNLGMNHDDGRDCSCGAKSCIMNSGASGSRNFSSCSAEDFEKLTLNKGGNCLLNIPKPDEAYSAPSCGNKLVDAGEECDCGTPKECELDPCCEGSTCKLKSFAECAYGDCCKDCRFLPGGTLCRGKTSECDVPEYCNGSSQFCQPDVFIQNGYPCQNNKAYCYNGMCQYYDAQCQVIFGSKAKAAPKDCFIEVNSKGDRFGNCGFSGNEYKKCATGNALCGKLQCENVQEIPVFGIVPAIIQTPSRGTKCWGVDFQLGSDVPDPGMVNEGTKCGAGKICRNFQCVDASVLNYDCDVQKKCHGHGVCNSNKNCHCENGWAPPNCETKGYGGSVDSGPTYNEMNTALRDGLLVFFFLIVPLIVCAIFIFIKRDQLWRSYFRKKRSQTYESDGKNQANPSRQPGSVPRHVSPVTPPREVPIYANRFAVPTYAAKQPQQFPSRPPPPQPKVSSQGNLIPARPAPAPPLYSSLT

| % TACE inhibition at 10 μM (TACE enzyme) [%] | IC50 (TACE enzyme; [1]) [nM] | SMILES | also measured |
| --- | --- | --- | --- |
| 96 | 118 | CS(=O)(=O)N1CCN([C@@H](CNC(=O)c2ccc(OCc3ccnc4ccccc34)cc2)C(=O)NO)CC1 [Example 21, N—[(S)-2-hydroxycarbamoyl-2-(4-methane-sulphonylpiperazin-1-yl)ethyl]-4-(quinolin-4-ylmethoxy)benzamide] |  |
| 100 | 28 | CC#CCOc1ccc(C(=O)NC[C@@H](C(=O)NO)N2CCN(S(C)(=O)=O)CC2)cc1 [Example 2, 4-But-2-ynyloxy-N—[(S)-2-hydroxycarbamoyl-2-(4-methanesulphonylpiperazin-1-yl)ethyl]benzamide] | IC50 (MMP1): > 10000 nM; IC50 (MMP3): 6310 nM; IC50 (MMP9): > 10000 nM; IC50 (TACE enzyme; selectivity table): 28 nM |
| 90 | 45 | CCN1CCN([C@@H](CNC(=O)c2ccc(OCc3cc(C)nc4ccccc34)cc2)C(=O)NO)CC1 [Example 25, N—[(S)-2-(4-Ethylpiperazin-1-yl)-2-hydroxycarbamoylethyl]-4-(2-methylquinolin-4-ylmethoxy)-benzamide] |  |
| 96 | 95 | Cc1ccc(COc2ccc(C(=O)NC[C@@H](C(=O)NO)N3CCN(S(C)(=O)=O)CC3)cc2)cc1 [Example 11, N—[(S)-2-hydroxycarbamoyl-2-(4-methane-sulphonylpiperazin-1-yl)ethyl]-4-(4-methylbenzyloxy)-benzamide] |  |
| 97 | 102 | Cc1cc(COc2ccc(C(=O)NC[C@@H](C(=O)NO)N3CCN(S(=O)(=O)C(C)C)CC3)cc2)c2ccccc2n1 [Example 23, N-{(S)-2-Hydroxycarbamoyl-2-[4-(propane-2-sulphonyl)piperazin-1-yl]ethyl}-4-(2-methylquinolin-4-ylmethoxy)benzamide] |  |
| 100 | 160 | COc1ccc(C(=O)NC[C@@H](C(=O)NO)N2CCN(S(C)(=O)=O)CC2)cc1 [Example 4, N—[(S)-2-hydroxycarbamoyl-2-(4-methane-sulphonylpiperazin-1-yl)ethyl]-4-methoxybenzamide] |  |
| 98 | 21 | CS(=O)(=O)N1CCN([C@@H](CNC(=O)c2ccc(OCc3ccc(F)cc3)cc2)C(=O)NO)CC1 [Example 9, 4-(4-fluorobenzyloxy)-N—[(S)-2-hydroxycarbamoyl-2-(4-methanesulphonylpiperazin-1-yl)ethyl]benzamide] |  |
| 98 | 70 | COc1ccc(COc2ccc(C(=O)NC[C@@H](C(=O)NO)N3CCN(S(C)(=O)=O)CC3)cc2)cc1 [Example 17, N—[(S)-2-Hydroxycarbamoyl-2-(4-methane-sulphonylpiperazin-1-yl)ethyl]-4-(4-methoxybenzyloxy)-benzamide] |  |
| 97 | 117 | CS(=O)(=O)N1CCN([C@@H](CNC(=O)c2ccc(OCc3ccc(C(F)(F)F)cc3)cc2)C(=O)NO)CC1 [Example 10, N—[(S)-2-hydroxycarbamoyl-2-(4-methane-sulphonylpiperazin-1-yl)ethyl]-4-(4-trifluoromethyl-benzyloxy)benzamide] |  |
| 100 | 32 | CC#CCOc1ccc(C(=O)NCC(C(=O)NO)N2CCN(S(C)(=O)=O)CC2)cc1 (stereo not drawn) [Example 1, 4-But-2-ynyloxy-N-[2-hydroxycarbamoyl-2-(4-methanesulphonylpiperazin-1-yl)ethyl]benzamide] |  |
| 100 | 200 | CS(=O)(=O)N1CCN([C@@H](CNC(=O)c2ccc(OCC3CC3)cc2)C(=O)NO)CC1 [Example 5, 4-cyclopropylmethoxy-N—[(S)-2-hydroxycarbamoyl-2-(4-methanesulphonylpiperazin-1-yl)ethyl]benzamide] |  |
| 98 | 22 | CC#CCOc1ccc(C(=O)N(C)C[C@@H](C(=O)NO)N2CCN(S(C)(=O)=O)CC2)cc1 [Example 13, 4-But-2-ynyloxy-N—[(S)-2-hydroxycarbamoyl-2-(4-methanesulphonylpiperazin-1-yl)ethyl]-N-methylbenzamide] |  |
| 100 | 54 | CC#CCOc1ccc(C(=O)NC[C@@H](C(=O)NO)N2CCN(S(=O)(=O)c3ccc(C)cc3)CC2)cc1 [Example 8, 4-but-2-ynyloxy-N-{(S)-2-hydroxycarbamoyl-2-[4-(toluene-4-sulphonyl)piperazin-1-yl]ethyl}benzamide] |  |
| 97 | 79 | Cc1cc(COc2ccc(C(=O)NC[C@@H](C(=O)NO)N3CCN(Cc4ccccc4)CC3)cc2)c2ccccc2n1 [Example 22, N—[(S)-2-(4-Benzylpiperazin-1-yl)-2-hydroxycarbamoylethyl]-4-(2-methylquinolin-4-yl-methoxy)benzamide] |  |
| 90 | 138 | Cc1ccc2ccccc2c1COc1ccc(C(=O)NC[C@@H](C(=O)NO)N2CCN(S(C)(=O)=O)CC2)cc1 [Example 19, N—[(S)-2-Hydroxycarbamoyl-2-(4-methane-sulphonylpiperazin-1-yl)ethyl]-4-(2-methylnaphthalen-1-ylmethoxy)benzamide] |  |
| 98 | 99 | CS(=O)(=O)N1CCN([C@@H](CNC(=O)c2ccc(OCc3ccncc3)cc2)C(=O)NO)CC1 [Example 18, N—[(S)-2-Hydroxycarbamoyl-2-(4-methane-sulphonylpiperazin-1-yl)ethyl]-4-(pyridin-4-ylmethoxy)-benzamide] |  |
| 100 | 40 | CS(=O)(=O)N1CCN([C@@H](CNC(=O)c2ccc(OCc3ccccc3)cc2)C(=O)NO)CC1 [Example 6, 4-benzyloxy-N—[(S)-2-hydroxycarbamoyl-2-(4-methanesulphonylpiperazin-1-yl)ethyl]benzamide] |  |
| 97 | 35 | CS(=O)(=O)N1CCN([C@@H](CNC(=O)c2ccc(OCC#CCO)cc2)C(=O)NO)CC1 [Example 16, 4-(4-Hydroxybut-2-ynyloxy)-N—[(S)-2-hydroxycarbamoyl-2-(4-methanesulphonylpiperazin-1-yl)-ethyl]benzamide] |  |
| 95 |  | O=C(NCC(C(=O)NO)N1CCN(Cc2ccccc2)CC1)c1ccc(OCc2c(C(F)(F)F)nn3ccccc23)cc1 (stereo not drawn) [Example 27, N-[2-(4-Benzylpiperazin-1-yl)-2-hydroxycarbamoylethyl]-4-(2-trifluoromethylpyrazolo[1,5-a]pyridin-3-ylmethoxy)benzamide] | IC50 (MMP1): > 10000 nM; IC50 (MMP3): > 10000 nM; IC50 (MMP9): > 10000 nM; IC50 (ADAM10): > 10000 nM; IC50 (ADAM9): > 10000 nM |

| SMILES | % TACE inhibition at 10 μM (TACE enzyme) [%] | IC50 (TACE enzyme; [1]) [nM] | also measured |
| --- | --- | --- | --- |
| Cc1cc(COc2ccc(C(=O)NC[C@@H](C(=O)NO)N3CCN(S(C)(=O)=O)CC3)cc2)c2ccccc2n1 [Example 14, N—[(S)-2-Hydroxycarbamoyl-2-(4-methane-sulphonylpiperazin-1-yl)ethyl]-4-(2-methylquinolin-4-ylmethoxy)benzamide] | 98 |  | IC50 (MMP1): 2610 nM; IC50 (MMP3): 6830 nM; IC50 (ADAM10): 5790 nM |
| Cc1cc(COc2ccc(C(=O)NC[C@@H](C(=O)NO)N3CCN(S(C)(=O)=O)CC3)cc2)c2ccccc2n1.Cl.Cl [Example 24, N—[(S)-2-Hydroxycarbamoyl-2-(4-methane-sulphonylpiperazin-1-yl)ethyl]-4-(2-methylquinolin-4-ylmethoxy)benzamide dihydrochloride] | 98 |  |  |

Source: patent publication US9115102B2, “N-[2-hydroxycarbamoyl-2-(piperazinyl) ethyl] benzamide compounds, their preparation and their use as TACE inhibitors” (GALDERMA RESEARCH & DEVELOPMENT, priority 2009, dated 2015)
